Experimental data as given in patent publication US4988730A, “Diphenkylpropylamines for the therapy of heart disease” (Chinoin Gyogyszer es Vegyeszeti Termekek Gyar RT, priority 1986, dated 1991).
Like-named read-outs stand apart in the source and are kept apart here.

Key:
[1] = "two-step" coronary occlusion of Harris, extrasystolic activity in conscious dogs; format: in vivo; conditions: for extrasystolic activity following by 24 hours the two-step coronary occlusion: conscious dogs, KHL-8430 2 mg/kg intravenous
[2] = vasopressin-induced angina, comparison of calcium antagonists (table 2); format: in vivo; conditions: for BP/Antianginal ED50 / ratio (row drawing 12; DP/dt max/antianginal by arithmetic): ratio, table 2
[3] = antiarrhythmic ("antifibrillatory") action, fibrillation threshold; format: in vivo; conditions: table 2
[4] = vasopressin angina of rats (acute coronary failure induced by vasopressin); format: in vivo; conditions: for ED50: Rattus norvegicus
Description: Thus, such derivatives forming a more preferred group of the compounds of the formula (I), wherein R^1 is as defined above, R^2 means a methyl group, R^3 is halogen and R^4, R^5 and R^6 stand for hydrogen, show significant antianginal effects. In these derivatives, the halogen may be fluorine, chlorine or bromine. […] Thus, the above compound of the invention is about 42 times as effective as fendiline under the same conditions.
(§1) In the case of the vasopressin angina of rats [Papp and Szekeres: Arch. int. Pharmacodyn. 160, 147 (1966)], the antianginal activity measured at the 2nd minute following the intravenous administration or at the 60th minute after oral administration, respectively, as well as the intravenous and oral acute toxicity values, the therapeutic indices and the quotient of the therapeutic ratio of KHL-8430 to that of fendiline as measured in rats are summarized in Table 1.

[5] = acute toxicity in rats (LD50, therapeutic indices); format: in vivo; conditions: for LD50 / selectivity ratio: rat, in vivo; for LD50: acute toxicity; for selectivity ratio: LD50 and ED50 in vasopressin angina
Description: as §1

[6] = myocardial ischaemia induced by coronary occlusion in dogs; format: in vivo; conditions: versus fendiline
Description: The myocardial ischaemia induced by coronary occlusion in dogs [Szekeres e al.: J. Pharm.

[7] = test system: auricular and ventricular muscle of the isolated cat heart; assay: antiarrhythmic action in auricular and ventricular muscle of the isolated cat heart
[8] = anti-ischaemic protective action after an oral dose; format: in vivo
[9] = haemodynamic actions (blood pressure, heart rate, left ventricle contractility); format: in vivo; conditions: i.v.; KHL-8430, verapamil and fendiline
[10] = haemodynamic study on dogs during coronary occlusion; format: in vivo; conditions: in comparison with fendiline, verapamil or nifedipine
[11] = ventricular extrasystoles developing under the effect of a coronary occlusion; format: in vivo; conditions: as opposed to fendiline
[12] = 1 h, vasopressin angina, 60th minute after oral administration, read-out: ED50, antianginal activity, oral
[13] = iv, 2 min, i.v. at 2 minutes before inducing the angina by i.v. 2 NE/kg of vasopressin, read-out: ED50, acute coronary failure induced by vasopressin
[14] = iv, 2 min, vasopressin angina, 2nd minute following i.v. administration, read-out: ED50, antianginal activity, intravenous
[15] = iv, rats, i.v., read-out: LD50, intravenous
[16] = iv, rats, i.v., read-out: therapeutic index, intravenous (head is drawing 4)
[17] = rats, oral, read-out: LD50, oral
[18] = rats, oral, read-out: therapeutic index, oral (head is drawing 5)

| Compound | extrasystolic activity following by 24 hours the two-step coronary occlusion [1] | BP/Antianginal ED50 [2] | ratio (row drawing 12; DP/dt max/antianginal by arithmetic) [2] | ratio (row drawing 11; BP/FFT by arithmetic) [3] | ratio (row drawing 13; DP/dt max/FFT by arithmetic) [3] | ED50 [4, 12] [mg/kg] | ED50 [4, 13] [mg/kg] | ED50 [4, 14] [mg/kg] | LD50 [5, 15] [mg/kg] | selectivity ratio [5, 16] | LD50 [5, 17] [mg/kg] | selectivity ratio [5, 18] | also measured |
| --- | --- | --- | --- | --- | --- | --- | --- | --- | --- | --- | --- | --- | --- |
| CC(NCCC(c1ccccc1)c1ccccc1)c1ccccc1 (stereo not drawn) [Fendiline, N-(3,3-diphenylpropyl)-α-methylbenzylamine, reference compound] | no significant effect | 0.62 | 0.41 | 0.26 | 0.175 | 20 | 2.3 | 2.3 | 12.2 | 5.3 | 800 | 40 | – |
| COc1ccc(C(C)NCCC(c2ccccc2)c2ccccc2)cc1OC.Cl (centres unmarked) [KHL-8430, 2-(3,4-Dimethoxyphenyl)-6,6-diphenyl-3-azahexane hydrochloride] | significantly lowered | 3.75 | 10.00 | 1.25 | 3.33 | 8.4 | – | 0.34 | 16 | 47.1 | 1400 | 167 | decrease of myocardial ischaemia induced by coronary occlusion ([6]; intravenous or oral): decreased more strongly and with a much longer duration; strength and duration of the effect on the ischaemic state induced by coronary occlusion [6]: highly exceed that of fendiline; antiarrhythmic action, auricular and ventricular muscle of the isolated cat heart ([7]; compared with mexiletine): high antiarrhythmic action, which equals the effect of mexiletine; antiarrhythmic action relative to fendiline, verapamil and other calcium antagonists ([7]; isolated cat heart): by far surpassing that of fendiline, verapamil and other calcium antagonists; rhythm disturbances of the heart ([1]; dog, in vivo): in a great part of the cases, the rhythm disturbances of the heart could be suspended; frequency of the extrasystoles, oral administration ([1]; oral administration): diminished in a dose-dependent manner and very significantly; anti-ischaemic protective action after an oral dose [8]: very smooth; haemodynamical therapeutic index [9]: by far the best among the three calcium antagonists studied; arterial blood pressure during coronary occlusion [10]: only a little lowered; heart rate during coronary occlusion [10]: not decreased; prolongation of the activation time in the ischaemic area [10]: significantly restrained; strength and duration of the effect on the angina induced by vasopressin ([4]; versus fendiline): highly exceed that of fendiline; Quotient of the therapeutic ratios, intravenous ([5]; rats, i.v., therapeutic ratio of KHL-8430 to that of fendiline): 8.89; Quotient of the therapeutic ratios, oral ([5]; rats, oral, therapeutic ratio of KHL-8430 to that of fendiline): 4.17; toxicity on intravenous and oral administrations ([5]; versus fendiline): less toxic than the reference compound; restraint of ventricular extrasystoles under coronary occlusion [11]: surprisingly capable to restrain the ventricular extrasystoles |
| COc1ccc(CCN(C)CCCC(C#N)(c2ccc(OC)c(OC)c2)C(C)C)cc1OC (centres unmarked) [verapamil] | no significant effect | 2.0 | 0.7 | 0.13 | 0.04 | – | – | – | – | – | – | – | ED50 ([2]; iv, read-out: ED50, Vasopressin-induced angina): 0.1 mg/kg |
| CC(NCCC(c1ccccc1)c1ccccc1)c1ccc(Cl)cc1.Cl (centres unmarked) [2-(4-chlorophenyl)-6,6-diphenyl-3-azahexane hydrochloride] | – | – | – | – | – | – | 0.054 | – | – | – | – | – | times as effective as fendiline ([4]; vasopressin angina, i.v., same conditions): about 42 times |
